{"source": "patent US9113629B2", "about": "“4-amino-6-(4-substituted-phenyl)-picolinates and 6-amino-2-(4-substituted-phenyl)-pyrimidine-4-carboxylates and their use as herbicides” (DOW AGROSCIENCES LLC, priority 2013, dated 2015)", "key": {"[1]": {"test_system": "Key Grass and Sedge Weeds as well as Grass Crops", "assay": "Post-emergent Test II herbicidal activity (Table 6)", "type": "in vivo", "settings": "post-emergence, 336 h; for pest or weed control at 70 g/ha: 70 g ai/ha; for pest or weed control at 140 g/ha: 140 g ai/ha", "outline": "(§1)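 Foliar application at 187 L/ha to greenhouse-grown seedlings (first or second true leaf); subirrigation thereafter. Visual 0–100% injury at 14 d relative to untreated plants.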"}, "[2]": {"test_system": "Key Broadleaf Weed and Crop Species", "assay": "Post-emergent Test II herbicidal activity (Table 5)", "type": "in vivo", "settings": "post-emergence, 336 h, 14 days after application; for pest or weed control at 70 g/ha: application rate 70 g ai/ha; for pest or weed control at 140 g/ha: application rate 140 g ai/ha", "outline": "as §1"}, "[3]": {"settings": "CYPES: yellow nutsedge (Cyperus esculentus), read-out: Visual Growth Reduction (%) 14 Days After Application, CYPES"}, "[4]": {"settings": "DIGSA: crabgrass (Digitaria sanguinalis), read-out: Visual Growth Reduction (%) 14 Days After Application, DIGSA"}, "[5]": {"settings": "ECHCG: barnyardgrass (Echinochloa crus-galli), read-out: Visual Growth Reduction (%) 14 Days After Application, ECHCG"}, "[6]": {"settings": "ORYSA: rice (Oryza sativa), crop, read-out: Visual Growth Reduction (%) 14 Days After Application, ORYSA"}, "[7]": {"settings": "SETFA: giant foxtail (Setaria faberi), read-out: Visual Growth Reduction (%) 14 Days After Application, SETFA"}, "[8]": {"settings": "SORVU: grain sorghum (Sorghum vulgare), read-out: Visual Growth Reduction (%) 14 Days After Application, SORVU"}, "[9]": {"settings": "TRZSS (wheat, Triticum aestivum), crop, read-out: Visual Growth Reduction (%) 14 Days After Application, TRZSS"}, "[10]": {"settings": "ZEAMX: maize, corn (Zea mays), crop, read-out: Visual Growth Reduction (%) 14 Days After Application, ZEAMX"}, "[11]": {"settings": "ABUTH: velvetleaf (Abutilon theophrasti), read-out: Visual Growth Reduction (%) 14 Days After Application, ABUTH"}, "[12]": {"settings": "AMARE: redroot pigweed (Amaranthus retroflexus), read-out: Visual Growth Reduction (%) 14 Days After Application, AMARE"}, "[13]": {"settings": "BRSNN: oilseed-rape, canola (Brassica napus), read-out: Visual Growth Reduction (%) 14 Days After Application, BRSNN"}, "[14]": {"settings": "CHEAL: lambsquarters (Chenopodium album), read-out: Visual Growth Reduction (%) 14 Days After Application, CHEAL"}, "[15]": {"settings": "EPHHL: wild poinsettia (Euphorbia heterophylla), read-out: Visual Growth Reduction (%) 14 Days After Application, EPHHL"}, "[16]": {"settings": "HELAN: sunflower (Helianthus annuus), read-out: Visual Growth Reduction (%) 14 Days After Application, HELAN"}, "[17]": {"settings": "VIOTR: wild pansy (Viola tricolor), read-out: Visual Growth Reduction (%) 14 Days After Application, VIOTR"}}, "note": "Like-named read-outs stand apart in the source and are kept apart here."}
{"molecule": "Nc1cc(-c2ccc(Br)cc2)nc(C(=O)O)c1Cl", "note": "[Compound 168]", "values": [{"measurement": "pest or weed control at 70 g/ha", "setting": "[1]; [3]", "value": "95 to 100", "unit": "%"}, {"measurement": "pest or weed control at 140 g/ha", "setting": "[1]; [3]", "value": "95 to 100", "unit": "%"}, {"measurement": "pest or weed control at 70 g/ha", "setting": "[1]; [4]", "value": "75 to 84", "unit": "%"}, {"measurement": "pest or weed control at 140 g/ha", "setting": "[1]; [4]", "value": "75 to 84", "unit": "%"}, {"measurement": "pest or weed control at 70 g/ha", "setting": "[1]; [5]", "value": "95 to 100", "unit": "%"}, {"measurement": "pest or weed control at 140 g/ha", "setting": "[1]; [5]", "value": "95 to 100", "unit": "%"}, {"measurement": "pest or weed control at 70 g/ha", "setting": "[1]; [6]", "value": "0 to 29", "unit": "%"}, {"measurement": "pest or weed control at 140 g/ha", "setting": "[1]; [6]", "value": "0 to 29", "unit": "%"}, {"measurement": "pest or weed control at 70 g/ha", "setting": "[1]; [7]", "value": "95 to 100", "unit": "%"}, {"measurement": "pest or weed control at 140 g/ha", "setting": "[1]; [7]", "value": "95 to 100", "unit": "%"}, {"measurement": "pest or weed control at 70 g/ha", "setting": "[1]; [8]", "value": "95 to 100", "unit": "%"}, {"measurement": "pest or weed control at 140 g/ha", "setting": "[1]; [8]", "value": "95 to 100", "unit": "%"}, {"measurement": "pest or weed control at 70 g/ha", "setting": "[1]; [9]", "value": "60 to 74", "unit": "%"}, {"measurement": "pest or weed control at 140 g/ha", "setting": "[1]; [9]", "value": "60 to 74", "unit": "%"}, {"measurement": "pest or weed control at 70 g/ha", "setting": "[1]; [10]", "value": "95 to 100", "unit": "%"}, {"measurement": "pest or weed control at 140 g/ha", "setting": "[1]; [10]", "value": "95 to 100", "unit": "%"}, {"measurement": "pest or weed control at 70 g/ha", "setting": "[2]; [11]", "value": "95 to 100", "unit": "%"}, {"measurement": "pest or weed control at 140 g/ha", "setting": "[2]; [11]", "value": "95 to 100", "unit": "%"}, {"measurement": "pest or weed control at 70 g/ha", "setting": "[2]; [12]", "value": "95 to 100", "unit": "%"}, {"measurement": "pest or weed control at 140 g/ha", "setting": "[2]; [12]", "value": "95 to 100", "unit": "%"}, {"measurement": "pest or weed control at 70 g/ha", "setting": "[2]; [13]", "value": "95 to 100", "unit": "%"}, {"measurement": "pest or weed control at 140 g/ha", "setting": "[2]; [13]", "value": "95 to 100", "unit": "%"}, {"measurement": "pest or weed control at 70 g/ha", "setting": "[2]; [14]", "value": "95 to 100", "unit": "%"}, {"measurement": "pest or weed control at 140 g/ha", "setting": "[2]; [14]", "value": "95 to 100", "unit": "%"}, {"measurement": "pest or weed control at 70 g/ha", "setting": "[2]; [15]", "value": "95 to 100", "unit": "%"}, {"measurement": "pest or weed control at 140 g/ha", "setting": "[2]; [15]", "value": "95 to 100", "unit": "%"}, {"measurement": "pest or weed control at 70 g/ha", "setting": "[2]; [16]", "value": "95 to 100", "unit": "%"}, {"measurement": "pest or weed control at 140 g/ha", "setting": "[2]; [16]", "value": "95 to 100", "unit": "%"}, {"measurement": "pest or weed control at 70 g/ha", "setting": "[2]; [17]", "value": "0 to 29", "unit": "%"}, {"measurement": "pest or weed control at 140 g/ha", "setting": "[2]; [17]", "value": "30 to 44", "unit": "%"}]}
